Assay results published in patent publication US7183320B2, “Benzoylsulfonamides and sulfonylbenzamidines for use as antitumour agents” (Eli Lilly and Company, priority 2002, dated 2007).

Columns and labels:
Format in all cases: in vivo
[1] = tested on: MURINE MAMMARY ADENOCARCINOMA-16/C; assay: Early stage murine mammary adenocarcinoma-16/C (Table III); conditions: C3H female mice
Description: (§1) Conventional Murine Tumor and Human Tumor Xenouraft Assays
Briefly, the murine tumor or human xenograph was implanted subcutaneously using either 12-gauge trocar implants or counted number of cells. The location for the trocar insertion is midway between the axillary and inguinal region along the side of the mouse. The trocar is slipped approximately ¾ of an inch subcutaneously up toward the axilla before discharging the tumor fragment, and pinching the skin as the trocar is removed., Alternatively, human tumor cells prepared from a […] of donor tumors (5×10^6 cells) were implanted subcutaneously in a hind-leg of a male or female nude mouse (Charles River). Either a test compound in vehicle or vehicle alone was administered by intravenous bolus injection (iv), intraperitoneal injection (ip), or oral gavage (po). Each treatment group, as well as a group of untreated control animals, consisted of five animals per group in each experiment. […] Body weights were taken as a general measure of toxicity. The subcutaneous tumor data were analyzed by determining the median tumor weight for each treatment group over the course of the experiment and calculating the tumor growth delay as the difference in days for the treatment versus the control tumors to reach a volume of either 500 or 1000 mm^3.
(§2) The parameters measured in each experiment are summarized in the following paragraphs. • Tumor Weight(mg)=(a×b^2)/2 where a=tumor length (mm) and b=tumor width (mm). • Tumor Growth Delay=T−C where T is the median time (days) required for the treatment group tumors to reach a predetermined size, and C is the median time (days) for the control group tumors to reach the same size. Tumor-free survivors are excluded from this calculation, and are tabulated separately (Tumor Free).
The median tumor weight of each group is determined (including zeros). The T/C value in percent is an indication of antitumor effectiveness.

[2] = tested on: HUMAN COLON ADENOCARCINOMA-HCT116; assay: Early stage human colon adenocarcinoma HCT116 xenograft (Table IV); conditions: Balb/C SCID female mice
Description: as §1
(§3) Inhibition of tumors transplanted into mice is an accepted procedure for studying the efficacy of antitumor agents (Corbett, et al., In vivo Methods for Screening and Preclinical Testing; Use of rodent solid tumors for drug discovery., In: Anticancer Drug Development Guide: Preclinical Screening, Clinical Trials, and Approval, B. Teicher (ed), Humana Press Inc., Totowa, N.J., Chapter 5, pages 75–99 (1997); (Corbett, et al., Int., J. Parmacog., 33, Supplement, 102–122 (1995)). Murine tumors or human xenographs were implanted essentially as described by Corbett in In vivo Methods for Screening and Preclimical Testing; Use of rodent solid tumors for drug discovery. Briefly, the murine tumor or human xenograph was implanted subcutaneously using either 12-gauge trocar implants or counted number of cells. The location for the trocar insertion is midway between the axillary and inguinal region along the side of the mouse. The trocar is slipped approximately ¾ of an inch subcutaneously up toward the axilla before discharging the tumor fragment, and pinching the skin as the trocar is removed., Alternatively, human tumor cells prepared from a […] of donor tumors (5×10^6 cells) were implanted subcutaneously in a hind-leg of a male or female nude mouse (Charles River). Either a test compound in vehicle or vehicle alone was administered by intravenous bolus injection (iv), intraperitoneal injection (ip), or oral gavage (po). Each treatment group, as well as a group of untreated control animals, consisted of five animals per group in each experiment. Subcutaneous tumor response was monitored by tumor volume measurement performed twice each week over the course of the experiment (60–120 days). Body weights were taken as a general measure of toxicity. The subcutaneous tumor data were analyzed by determining the median tumor weight for each treatment group over the course of the experiment and calculating the tumor growth delay as the difference in days for the treatment versus the control tumors to reach a volume of either 500 or 1000 mm^3.
as §2, with “The compound of Example 110 was tested against a variety of murine and human tumors substantially as described supra. The” for “The”
(§4) [formula] • where Tumor Growth Delay is as previously defined and Td is tumor volume doubling time (days), estimated from the best fit straight line from a log-linear growth plot of the control group of tumors in exponential growth (100–800 mg range) • % T/C mass—The treatment and control groups are measured when the control group tumors reach approximately 700 to 1200 mg in size (median group). The median tumor weight of each group is determined (including zeros). The T/C value in percent is an indication of antitumor effectiveness. A T/C≦42% is considered significant antitumor activity. A T/C<10% is considered to indicate highly significant antitumor activity. • Body Weight Loss Nadir—A body weight loss nadir (mean of group) of greater than 20% or drug deaths greater than 20% are considered to indicate an excessively toxic dosage in single course trials. • Activity Rating—the Activity Rating is derived from the Log Kill according to the following table: […]

[3] = tested on: HUMAN SQUAMOUS CELL LUNG CARCINOMA MRI-H165; assay: Early stage human squamous cell lung carcinoma MRI-H165 xenograft (Table XI); conditions: total dose 600 mg/kg: 100 mg/kg/injection IV on days 3–5 and 10–12; Balb/C SCID female mice
Description: as §1, §3
as §2, with “The compound of Example 110 was tested against a variety of murine and human tumors substantially as described supra. The” for “The”
as §4

[4] = total dose 560 mg/kg by IV infusion over 3 hours on day 3
[5] = total dose 560 mg/kg: 280 mg/kg by IV infusion on days 3 and 7
[6] = total dose 680 mg/kg IV: 80 mg/kg/injection days 3–6, 120 mg/kg/injection days 7–9
[7] = total dose 280 mg/kg: 70 mg/kg/injection IV on days 3, 4, 5, and 9
[8] = total dose 560 mg/kg: 140 mg/kg/injection IV on days 3, 4, 5, and 9

## O=C(NS(=O)(=O)c1ccccc1)c1ccc(Cl)cc1Cl [Example 110, N-[2,4-dichlorobenzoyl]phenylsulfonamide]
[1]; [4]
  % BODY WT LOSS AT NADIR: DEATH
  ACTIVITY RATING: DEATH
  DRUG DEATHS: 5/5
  GROWTH DELAY (DAYS): DEATH
  TUMOR FREE AT DAY 14: 0/5
[1]; [5]
  % BODY WT LOSS AT NADIR: +10.9%
  % T/C MASS: 37%
  ACTIVITY RATING: + (0.7–1.2)
  DRUG DEATHS: 0/4
  GROWTH DELAY: 2.0 days
  LOG KILL: 0.6
  TUMOR FREE AT DAY 14: 0/4
[1]; [6]
  % BODY WT LOSS AT NADIR: +7.6%
  % T/C MASS: 39%
  ACTIVITY RATING: + (0.7–1.2)
  DRUG DEATHS: 0/5
  GROWTH DELAY: 2.5 days
  LOG KILL: 0.75
  TUMOR FREE AT DAY 14: 0/5
[2]; [7]
  % BODY WT LOSS AT NADIR: 0%
  % T/C MASS: 0%
  ACTIVITY RATING: ++++ (HIGHLY ACTIVE >2.8)
  DRUG DEATHS: 0/5
  GROWTH DELAY: 28 days
  LOG KILL: 3.4
  TUMOR FREE AT DAY 115: 2/5
[2]; [8]
  % BODY WT LOSS AT NADIR: −4.0%
  % T/C MASS: 0%
  ACTIVITY RATING: ++++ (HIGHLY ACTIVE >2.8)
  DRUG DEATHS: 0/5
  GROWTH DELAY: 56 days
  LOG KILL: 6.7
  TUMOR FREE AT DAY 115: 2/5
[3]
  % BODY WT LOSS AT NADIR: −2.1% ^
  % T/C MASS: 0%
  ACTIVITY RATING: ++++ (HIGHLY ACTIVE >2.8)
  DRUG DEATHS: 0/5
  GROWTH DELAY: 31 days
  LOG KILL: 3.7
  TUMOR FREE AT DAY 55: 0/5
